According to US20050003502A1 (priority 2000, published 2005):

Tests used:
[1] = target: T1, human topoisomerase I (topo70) in covalent complex with duplex 22 mer DNA (Homo sapiens, UniProt P11387); test: X-ray crystal structure of ternary topo70-DNA-compound complex; assay type: binding
T1 construct: residues 175 to 765 of the natural protein plus an N-terminal initiating methionine; initiating methionine (one added Met before residue 175) (N); made in house; host or cells: insect cells (recombinant baculovirus, pFastBac-topo70 wt)
T1 sequence (P11387 175-765): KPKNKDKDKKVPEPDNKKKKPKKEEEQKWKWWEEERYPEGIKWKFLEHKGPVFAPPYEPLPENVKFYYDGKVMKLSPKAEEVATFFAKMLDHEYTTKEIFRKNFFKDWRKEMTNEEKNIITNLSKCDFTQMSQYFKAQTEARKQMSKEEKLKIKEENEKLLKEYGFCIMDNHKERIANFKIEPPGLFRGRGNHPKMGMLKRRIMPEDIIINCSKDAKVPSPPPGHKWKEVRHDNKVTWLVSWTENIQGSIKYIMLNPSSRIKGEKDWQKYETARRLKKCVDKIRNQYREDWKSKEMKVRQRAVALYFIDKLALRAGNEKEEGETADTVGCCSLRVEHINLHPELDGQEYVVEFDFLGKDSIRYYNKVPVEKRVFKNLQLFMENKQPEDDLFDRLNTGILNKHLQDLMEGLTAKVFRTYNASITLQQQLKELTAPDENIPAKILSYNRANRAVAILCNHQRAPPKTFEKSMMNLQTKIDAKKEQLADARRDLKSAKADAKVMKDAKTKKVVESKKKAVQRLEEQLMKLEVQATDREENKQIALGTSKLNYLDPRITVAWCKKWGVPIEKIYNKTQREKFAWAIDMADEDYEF

Topo I = settings: Hsiang et al., Cancer Res 1989; cited from earlier work
[2] = Giovanella et al., Science 1989; cited from earlier work
[3] = target: T2, reconstituted "linker-less" human Topo I (Homo sapiens, UniProt P11387); settings: Stewart et al., J. Biol. Chem. 1999; cited from earlier work
T2 sequence (P11387 175-659 limits assumed): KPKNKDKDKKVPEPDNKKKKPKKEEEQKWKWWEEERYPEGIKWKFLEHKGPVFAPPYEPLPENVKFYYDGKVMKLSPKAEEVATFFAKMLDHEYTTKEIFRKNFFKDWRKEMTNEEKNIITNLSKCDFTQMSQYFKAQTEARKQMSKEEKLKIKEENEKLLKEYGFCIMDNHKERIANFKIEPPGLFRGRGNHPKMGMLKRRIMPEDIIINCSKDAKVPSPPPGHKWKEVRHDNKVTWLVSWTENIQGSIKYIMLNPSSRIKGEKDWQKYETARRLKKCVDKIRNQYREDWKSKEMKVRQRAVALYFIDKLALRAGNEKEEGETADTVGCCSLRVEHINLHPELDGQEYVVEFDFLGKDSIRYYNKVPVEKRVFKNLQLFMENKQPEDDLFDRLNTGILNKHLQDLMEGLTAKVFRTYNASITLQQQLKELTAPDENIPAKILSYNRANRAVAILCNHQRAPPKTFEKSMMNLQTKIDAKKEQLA
T2 sequence (P11387 713-765 limits assumed): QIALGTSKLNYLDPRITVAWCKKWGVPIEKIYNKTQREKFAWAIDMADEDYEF

[4] = unrestrained full matrix refinement of occupancy factors, standard uncertainty 7%

With CCOc1ccc(-c2nc3ccc(-c4nc5ccc(N6CCN(C)CC6)cc5[nH]4)cc3[nH]2)cc1 [Hoecsht-33342] as the compound, how does the “binding site relative to camptothecin” value ([1]; Form 11 structure) read?
Its value is “do not bind at the same site as camptothecin”.

Which “Topo I inhibitory activity in vitro” value (Topo I) does the source give for CC[C@@](O)(C(=O)[O-])c1cc2n(c(=O)c1CO)Cc1cc3ccccc3nc1-2.[Na+] [sodium carboxylate form of camptothecin] here?
The value was “does have Topo I inhibitory activity in vitro”.

What about the “activity in in vivo cell killing assays” value [2] of the same compound?
Its value is “does have”.

Which “binding mode in the crystal structure” value ([1]; Form 9-TTC, Form 9-AG260, Form 10 structures) does the source give for CC[C@@]1(O)C(=O)OCc2c1cc1n(c2=O)Cc2cc3c(CN(C)C)c(O)ccc3nc2-1 [topotecan] here?
The value was “intercalate at the site of DNA cleavage”.

And the “occupancy of closed lactone form in the bound complex” value [1, 4]?
The value was 63%.

What about the “occupancy of open carboxylate form in the bound complex” value [1, 4] of the same compound?
Its value is 37%.

What about the “relaxation-inhibition effect on linker-less Topo I” value [3] of the same compound?
Its value is “resistant to the relaxation-inhibition effect”.
